Laboratory results as given in paper PMC8143291, “Cytotoxicity and Microbicidal Activity of Commonly Used Organic Solvents: A Comparative Study and Application to a Standardized Extract from Vaccinium macrocarpon” (Toxics, 2021).

Columns and labels:
[1] = test system: breast cancer, mouse macrophage and human umbilical vein endothelial cells; set-up: method as in doi:10.17795/ajmb-33453; details: cited from earlier work
[2] = test system: CCL-1 (transformed mouse fibroblasts, NCTC clone 929); assay: MTT dye-reduction cytotoxicity assay (ISO 10993-5); assay type: cell-based; details: solvent alone, 72 h, at least 70% of cells viable, n = 3
Excerpt: (§1) The cell lines utilized in this study included the human tumor lines A-375 (malignant melanoma) and A-431 (non-melanoma epidermoid squamous skin carcinoma) as well as the models for non-tumorigenic cells—HaCaT (immortalized human keratinocytes) and CCL-1^TM (transformed mouse fibroblasts, NCTC clone 929). The first three cell lines were obtained from CLS Cell Lines Service (GmbH, Eppelheim, Germany). CCL-1^TM was purchased from the American Type Culture Collection (ATCC, Manassas, VA, USA). Cells were maintained in a controlled environment—sterile cell culture flasks in a CO2 incubator Panasonic MCO-18AC (Panasonic Healthcare co., ltd, Oizumi-Machi, Japan) at 37 °C and a humidified atmosphere containing 5% CO2. CCL-1 was cultured in MEM with 10% heat-inactivated horse serum and 2 mM L-glutamine, and the cell culture medium for the rest of the cell lines was DMEM-HG with 4.5 g/L glucose with the addition of 10% heat-inactivated fetal bovine serum and 4 mM L-glutamine. Pen/strep (concentration of penicillin G sodium 10^5 Units/L and of streptomycin sulfate 100 mg/L) was added to both culture media. The cell lines were maintained as an adherent monolayer in a log phase. The cells were sub-cultivated about 1–3 times per week after the monolayer reached 80–90% confluence. The medium was removed from the flask, and the cell monolayer was washed with 3–5 mL PBS. The cells were incubated with 0.05% EDTA in PBS for 8–10 min, followed by the next step where all cell lines were subjected to enzyme cell detachment. HaCaT and CCL-1 monolayers were detached with 1 mL solution of trypsin/EDTA (0.1%/0.05% for HaCaT and 0.25% (w/v)/0.53 mM for CCL-1) and incubated for 2–5 min at 37 °C (for HaCaT) or at room temperature (for CCL-1 cells), whereas Accutase® was used for A-375 and A-431 lines. The incubation lasted until the separation and dispersion of the cells in the monolayer were observed using light microscopy. In the end, all cell lines were resuspended in 10 mL medium and centrifuged for 3 min at 300× g. The cell pellet was resuspended in fresh medium and sub-cultivated at a seeding density of 1.0 × 10^4 cells/cm^2.
(§2) The MTT test was performed in order to determine the median inhibitory (IC50) and MTC concentrations of the solvents and PAC according to Annex C, ISO 10993-5 [2, 21]. Briefly, 100 µL of the cell suspension (1 × 10^5 cells/mL) were seeded per well in 96-well plates with a flat bottom. The cells were incubated for 24 h, allowing them to enter the log phase of their growth. On the 24th hour, the cells were treated with the solvents or CystiCran® solutions in concentrations ranging between 0.004% and 2% volume fraction (v/v) and incubated further for 72 h. The incubation periods are following the recommendations of the FDA guide for the use of ISO 10993-1 [1]. At the end of the incubation period, 10 µL of an MTT solution (5 mg/mL) were added to each well, and the plates were kept at 37 °C for 2 hours. Thereafter, the medium was aspirated, and the formed formazan crystals were dissolved in 100 μL/well of 2-propanol supplemented with 5% formic acid. The same solvent was used as a blank. Untreated cells were considered as a negative control. […] The absorption was measured at 540 nm (reference filter at 690 nm) on a microplate reader ELx800 (BioTek Instruments, Inc., Winooski, VT, Winooski, VT, USA).
(§3) The IC50 values from the MTT assay were evaluated with a non-linear regression analysis (Curve fit, GraphPad Prizm 6.01 software, GraphPad Software Inc., San Diego, CA, USA) using sigmoidal concentration–response curves. The cell viability is presented as a percentage of the untreated control. At least four wells were seeded for every concentration. Three independent assays were performed (n = 3).

[3] = test system: HaCaT (immortalized human keratinocytes); assay: MTT dye-reduction cytotoxicity assay (ISO 10993-5); assay type: cell-based; details: solvent alone, 72 h, at least 70% of cells viable, n = 3
Excerpt: as §1, §2, §3

[4] = test system: Bacillus subtilis; details: cited from earlier work

What does the source list for `CN(C)C=O` [DMF, N,N-dimethylformamide]?
maximum tolerated concentration (MTC) / applicable concentration [1]: 0.1 % v/v; MTC (maximum tolerated concentration) [2]: 0.03 % (v/v); MTC (maximum tolerated concentration) [3]: 0.03 % (v/v); tolerated concentration [4]: ≥ 10 % v/v
